Measurements published in patent US20200163984A1, “USE OF ISOVALERYL SPIRAMYCIN I, II AND/OR III IN MANUFACTURING MEDICAMENT FOR TREATING AND/OR PREVENTING TUMOR, AND MEDICAMENT” (SHENYANG FUYANG PHARMACEUTICAL TECHNOLOGY CO., LTD., priority 2017, published 2020).

Legend:
[1] = test system: transplanted tumor of human cervical cancer cell HeLa; assay: HeLa transplanted tumor in nude mice; details: for Tumor Volume (mm3) (d 1): d1
Protocol: (§1) HeLa cells in a logarithmic growth phase were taken and subjected to a trypan blue exclusion experiment showing that the cell viability was more than 95%, then the cells were subjected to trypsinization, centrifugation, and supernatant removal. Then cell concentration was adjusted to 1×10^7/ml with matrigel, then each nude mouse was inoculated subcutaneously with 0.2 ml of cells at its right armpit and recorded as the first day of inoculation. When the tumor grows to be greater than or equal to 100 mm^3, the mice were randomly divided into 11 groups with 6 mice in each group: a model group, a cyclophosphamide group, isovaleryl spiramycin I groups with doses of 25, 50 and 100 mg/kg, isovaleryl spiramycin II groups with doses of 25, 50 and 100 mg/kg, and isovaleryl spiramycin III groups with doses of 25, 50 and 100 mg/kg. Each group was continuously administered intragastrically for 30 days with a dose of 20 ml/kg. The mice were sacrificed the next day after drug withdrawal and the indicators were tested. The long diameter and short diameter of the tumor, and the body weight of each mouse were recorded every 3 days from drug administration to nude mouse sacrifice.
(§2) The body weight of the nude mice and the long diameter (a) and short diameter (b) of the transplanted tumor were measured every 3 days, and the tumor volume (v), relative tumor volume (RTV) and relative tumor proliferation rate (T/C) are calculated respectively according to the following formulas, wherein V=a×b^2/2; RTV=V/V0 (V0 is the tumor volume before administration, V is the tumor volume before sacrifice), and T/C (%)=treatment group RTV/model control group RTV×100%.
(§3) Each mouse was weighed and sacrificed. After the tumor was completely stripped off from the body of the mouse, the non-tumor tissues such as blood stains and fat were removed to weigh the tumor and calculate the tumor growth inhibition rate. The average tumor weight of each group of mice is used as an indicator of efficacy. Tumor growth inhibition rate (%)=(1−the average tumor weight of the treatment group/the average tumor weight of the model group)×100%.

[2] = test system: transplanted tumor of human breast cancer cell MCF-7; assay: MCF-7 transplanted tumor in nude mice
Protocol: as §1, with “Then” for “HeLa cells in a logarithmic growth phase were taken and subjected to a trypan blue exclusion experiment showing that the cell viability was more than 95%, then the cells were subjected to trypsinization, centrifugation, and supernatant removal. Then”
as §2, §3

[3] = test system: transplanted tumor of human renal clear cell adenocarcinoma cell 786-O; assay: 786-O transplanted tumor in nude mice; details: for Tumor Volume (mm3) (d 1): d1
Protocol: as §1, with “786-O” for “HeLa”
as §2, §3

[4] = HeLa, high dose (100 mg/kg in method) i.g. 30 days
[5] = HeLa, low dose (25 mg/kg in method) i.g. 30 days
[6] = HeLa, medium dose (50 mg/kg in method) i.g. 30 days
[7] = MCF-7, 25 mg/kg (low dose) i.g. 30 days
[8] = MCF-7, 50 mg/kg (medium dose) i.g. 30 days
[9] = MCF-7, 100 mg/kg (high dose) i.g. 30 days
[10] = 786-O, high dose (100 mg/kg in method) i.g. 30 days
[11] = 786-O, low dose (25 mg/kg in method) i.g. 30 days
[12] = 786-O, medium dose (50 mg/kg in method) i.g. 30 days

CCC(=O)O[C@@H]1CC(=O)O[C@H](C)C/C=C/C=C/[C@H](O[C@H]2CC[C@H](N(C)C)[C@@H](C)O2)[C@H](C)C[C@H](CC=O)[C@H](O[C@@H]2O[C@H](C)[C@@H](O[C@H]3C[C@@](C)(O)[C@@H](OC(=O)CC(C)C)[C@H](C)O3)[C@H](N(C)C)[C@H]2O)[C@H]1OC [Isovaleryl spiramycin III, isovaleryl spiramycin III]
Inhibition Rate (%) ([1]; HeLa nude mice, 12.5 mg/kg): 39.33%
Relative Tumor Proliferation Rate (T/C) ([1]; HeLa nude mice, 12.5 mg/kg): 62.92%
Relative Tumor Volume (RTV) ([1]; HeLa nude mice, 12.5 mg/kg): 1.43 ± 1.47
Tumor Weight ([1]; HeLa nude mice, 12.5 mg/kg): 1.17 ± 0.64 g
Tumor Volume (mm3) (d 1) ([1]; HeLa nude mice, 12.5 mg/kg): 123.36 ± 21.45 mm3
Tumor Volume (mm3) (d30) ([1]; HeLa nude mice, 12.5 mg/kg): 1281.92 ± 242.71 mm3
Inhibition Rate (%) ([1]; HeLa nude mice, 25 mg/kg): 52.41%
Relative Tumor Proliferation Rate (T/C) ([1]; HeLa nude mice, 25 mg/kg): 52.05%
Relative Tumor Volume (RTV) ([1]; HeLa nude mice, 25 mg/kg): 8.63 ± 3.37
Tumor Weight ([1]; HeLa nude mice, 25 mg/kg): 0.92 ± 0.49 g
Tumor Volume (mm3) (d 1) ([1]; HeLa nude mice, 25 mg/kg): 115.2 ± 27.18 mm3
Tumor Volume (mm3) (d30) ([1]; HeLa nude mice, 25 mg/kg): 1007.46 ± 481.36 mm3
Inhibition Rate (%) ([1]; HeLa nude mice, 50 mg/kg): 61.68%
Relative Tumor Proliferation Rate (T/C) ([1]; HeLa nude mice, 50 mg/kg): 39.33%
Relative Tumor Volume (RTV) ([1]; HeLa nude mice, 50 mg/kg): 6.52 ± 0.73
Tumor Weight ([1]; HeLa nude mice, 50 mg/kg): 0.75 ± 0.11 g
Tumor Volume (mm3) (d 1) ([1]; HeLa nude mice, 50 mg/kg): 113.35 ± 20.84 mm3
Tumor Volume (mm3) (d30) ([1]; HeLa nude mice, 50 mg/kg): 727.16 ± 46.92 mm3
Relative Tumor Proliferation Rate (T/C) [1, 4]: 61.68%
tumor growth inhibition rate [1, 4]: 61.68%
Relative Tumor Proliferation Rate (T/C) [1, 5]: 39.33%
tumor growth inhibition rate [1, 5]: 39.33%
tumor volume and relative tumor volume compared with the model group ([1]; HeLa, low, medium and high doses, P<0.05): significantly lower
Relative Tumor Proliferation Rate (T/C) [1, 6]: 52.41%
tumor growth inhibition rate [1, 6]: 52.41%
mouse weight compared with the model group ([1]; mouse, in vivo): no significant changes
Body Weight (g) (d1) ([1]; mouse, in vivo, 12.5 mg/kg): 21.30 ± 0.64 g
Body Weight (g) (d30) ([1]; mouse, in vivo, 12.5 mg/kg): 20.67 ± 0.45 g
Body Weight (g) (d1) ([1]; mouse, in vivo, 25 mg/kg): 20.87 ± 0.78 g
Body Weight (g) (d30) ([1]; mouse, in vivo, 25 mg/kg): 20.80 ± 0.55 g
Body Weight (g) (d1) ([1]; mouse, in vivo, 50 mg/kg): 21.09 ± 0.51 g
Body Weight (g) (d30) ([1]; mouse, in vivo, 50 mg/kg): 21.10 ± 0.52 g
Inhibition Rate (tumor growth inhibition rate) [2, 7]: 26.75%
Relative Tumor Proliferation Rate (T/C) [2, 7]: 75.03%
Relative Tumor Volume (RTV) [2, 7]: 13.13 ± 3.15
Tumor Volume (d 1) [2, 7]: 137.99 ± 20.99 mm3
Tumor Volume (d 30) [2, 7]: 1758.49 ± 129.06 mm3
Tumor Weight [2, 7]: 1.99 ± 0.81 g
Inhibition Rate (tumor growth inhibition rate) [2, 8]: 39.09%
Relative Tumor Proliferation Rate (T/C) [2, 8]: 54.92%
Relative Tumor Volume (RTV) [2, 8]: 9.61 ± 1.66
Tumor Volume (d 1) [2, 8]: 109.95 ± 13.42 mm3
Tumor Volume (d 30) [2, 8]: 1043.33 ± 113.01 mm3
Tumor Weight [2, 8]: 1.66 ± 0.66 g
Inhibition Rate (tumor growth inhibition rate) ([2]; MCF-7, 50 mg/kg (medium dose) i.g. 30 days, listed as isovaleryl spiramycin III): 39.08%
Inhibition Rate (tumor growth inhibition rate) [2, 9]: 61.78%
Relative Tumor Proliferation Rate (T/C) [2, 9]: 34.90%
Relative Tumor Volume (RTV) [2, 9]: 5.17 ± 0.64
Tumor Volume (d 1) [2, 9]: 113.14 ± 9.02 mm3
Tumor Volume (d 30) [2, 9]: 684.21 ± 115.00 mm3
Tumor Weight [2, 9]: 1.03 ± 0.54 g
Relative Tumor Proliferation Rate (T/C) ([2]; MCF-7, 100 mg/kg (high dose) i.g. 30 days, listed as isovaleryl spiramycin III): 34.91%
tumor volume and relative tumor volume compared with the model group ([2]; MCF-7, low, medium and high doses, P<0.05): significantly lower
mouse weight compared with the model group ([2]; mouse, in vivo): no significant changes
Inhibition Rate (%) ([3]; 786-O nude mice, 25 mg/kg): 35.80%
Relative Tumor Proliferation Rate (T/C) ([3]; 786-O nude mice, 25 mg/kg): 73.13%
Relative Tumor Volume (RTV) ([3]; 786-O nude mice, 25 mg/kg): 18.90 ± 3.60
Tumor Weight ([3]; 786-O nude mice, 25 mg/kg): 1.38 ± 0.42 g
Tumor Volume (mm3) (d 1) ([3]; 786-O nude mice, 25 mg/kg): 106.47 ± 6.86 mm3
Tumor Volume (mm3) (d30) ([3]; 786-O nude mice, 25 mg/kg): 1479.90 ± 458.97 mm3
Inhibition Rate (%) ([3]; 786-O nude mice, 50 mg/kg): 52.14%
Relative Tumor Proliferation Rate (T/C) ([3]; 786-O nude mice, 50 mg/kg): 51.33%
Relative Tumor Volume (RTV) ([3]; 786-O nude mice, 50 mg/kg): 9.76 ± 1.44
Tumor Weight ([3]; 786-O nude mice, 50 mg/kg): 1.02 ± 0.27 g
Tumor Volume (mm3) (d 1) ([3]; 786-O nude mice, 50 mg/kg): 96.82 ± 8.52 mm3
Tumor Volume (mm3) (d30) ([3]; 786-O nude mice, 50 mg/kg): 944.60 ± 112.60 mm3
Inhibition Rate (%) ([3]; 786-O nude mice, 100 mg/kg): 62.49%
Relative Tumor Proliferation Rate (T/C) ([3]; 786-O nude mice, 100 mg/kg): 34.20%
Relative Tumor Volume (RTV) ([3]; 786-O nude mice, 100 mg/kg): 6.18 ± 0.61
Tumor Weight ([3]; 786-O nude mice, 100 mg/kg): 0.80 ± 0.05 g
Tumor Volume (mm3) (d 1) ([3]; 786-O nude mice, 100 mg/kg): 103.26 ± 9.71 mm3
Tumor Volume (mm3) (d30) ([3]; 786-O nude mice, 100 mg/kg): 635.26 ± 78.22 mm3
Relative Tumor Proliferation Rate (T/C) [3, 10]: 34.20%
tumor growth inhibition rate [3, 10]: 62.49%
Relative Tumor Proliferation Rate (T/C) [3, 11]: 73.13%
tumor growth inhibition rate [3, 11]: 35.80%
tumor volume and relative tumor volume compared with the model group ([3]; 786-O, low, medium and high doses, P<0.05): significantly lower
Relative Tumor Proliferation Rate (T/C) [3, 12]: 51.33%
tumor growth inhibition rate [3, 12]: 52.14%
mouse weight compared with the model group ([3]; mouse, in vivo): no significant changes
Body Weight (g) (d1) ([3]; mouse, in vivo, 25 mg/kg): 22.72 ± 0.78 g
Body Weight (g) (d30) ([3]; mouse, in vivo, 25 mg/kg): 23.85 ± 0.89 g
Body Weight (g) (d1) ([3]; mouse, in vivo, 50 mg/kg): 21.43 ± 1.08 g
Body Weight (g) (d30) ([3]; mouse, in vivo, 50 mg/kg): 22.33 ± 1.09 g
Body Weight (g) (d1) ([3]; mouse, in vivo, 100 mg/kg): 22.28 ± 1.72 g
Body Weight (g) (d30) ([3]; mouse, in vivo, 100 mg/kg): 23.43 ± 1.69 g
